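1) Cells in 96-well plates. 2) Compound, 48 h, 5 concentrations. 3) Linear interpolation between surrounding doses. 4) Unreached endpoint = highest concentration. GI50: concentration for 50% inhibition of growth. The concentration for full growth arrest is given as TGI.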
Assays:
Assay in all cases: DTP human tumour cell line panel, 48 h
MCF7 breast = tested on: MCF7 breast
SK-MEL-5 melanoma = tested on: SK-MEL-5 melanoma
OVCAR-8 ovarian = tested on: OVCAR-8 ovarian
UACC-62 melanoma = tested on: UACC-62 melanoma
OVCAR-4 ovarian = tested on: OVCAR-4 ovarian
DU-145 prostate = tested on: DU-145 prostate
786-0 renal = tested on: 786-0 renal
NCI-H522 lung = tested on: NCI-H522 lung
MDA-MB-435 = tested on: MDA-MB-435
MALME-3M melanoma = tested on: MALME-3M melanoma
SN12C renal = tested on: SN12C renal
MDA-MB-231 breast = tested on: MDA-MB-231 breast
PC-3 prostate = tested on: PC-3 prostate
HCC-2998 colon = tested on: HCC-2998 colon
SNB-19 CNS = tested on: SNB-19 CNS
KM12 colon = tested on: KM12 colon
HOP-62 NSCLC = tested on: HOP-62 NSCLC
T-47D breast = tested on: T-47D breast
SR leukemia = tested on: SR leukemia
SK-OV-3 ovarian = tested on: SK-OV-3 ovarian
HL-60(TB) leukemia = tested on: HL-60(TB) leukemia
SK-MEL-2 melanoma = tested on: SK-MEL-2 melanoma
MOLT-4 leukemia = tested on: MOLT-4 leukemia
CAKI-1 renal = tested on: CAKI-1 renal
HS 578T breast = tested on: HS 578T breast
TK-10 renal = tested on: TK-10 renal
SF-539 CNS = tested on: SF-539 CNS
OVCAR-5 ovarian = tested on: OVCAR-5 ovarian
NCI-H226 lung = tested on: NCI-H226 lung
HT29 colon = tested on: HT29 colon
SNB-75 CNS = tested on: SNB-75 CNS
RPMI-8226 leukemia = tested on: RPMI-8226 leukemia
K-562 leukemia = tested on: K-562 leukemia
RXF 393 renal = tested on: RXF 393 renal
A498 renal = tested on: A498 renal
U251 CNS = tested on: U251 CNS
IGROV1 ovarian = tested on: IGROV1 ovarian
SW-620 colon = tested on: SW-620 colon
NCI-H23 lung = tested on: NCI-H23 lung
HCT-116 colon = tested on: HCT-116 colon
A549 NSCLC = tested on: A549 NSCLC
NCI/ADR-RES ovarian = tested on: NCI/ADR-RES ovarian
UO-31 renal = tested on: UO-31 renal
SF-268 CNS = tested on: SF-268 CNS
BT-549 breast = tested on: BT-549 breast
CCRF-CEM leukemia = tested on: CCRF-CEM leukemia
SK-MEL-28 melanoma = tested on: SK-MEL-28 melanoma
HOP-92 NSCLC = tested on: HOP-92 NSCLC
NCI-H460 lung = tested on: NCI-H460 lung
M14 melanoma = tested on: M14 melanoma
UACC-257 melanoma = tested on: UACC-257 melanoma
LOX IMVI melanoma = tested on: LOX IMVI melanoma
HCT-15 colon = tested on: HCT-15 colon
COLO 205 colon = tested on: COLO 205 colon
OVCAR-3 ovarian = tested on: OVCAR-3 ovarian
ACHN renal = tested on: ACHN renal

COc1ccc(C2=N[C@@H](Cc3ccccc3)C(=O)Nc3ccsc32)cc1
GI50 (MCF7 breast): 3.73 µM | TGI (MCF7 breast): 25.4 µM | GI50 (SK-MEL-5 melanoma): 3.26 µM | TGI (SK-MEL-5 melanoma): 12.1 µM | GI50 (OVCAR-8 ovarian): 6.31 µM | TGI (OVCAR-8 ovarian): 57.6 µM | GI50 (UACC-62 melanoma): 4.47 µM | TGI (UACC-62 melanoma): 20.2 µM | GI50 (OVCAR-4 ovarian): 11.2 µM | TGI (OVCAR-4 ovarian): 83 µM | GI50 (DU-145 prostate): 4.65 µM | TGI (DU-145 prostate): 21.9 µM | GI50 (786-0 renal): 10.7 µM | TGI (786-0 renal): 36.6 µM | GI50 (NCI-H522 lung): 2.71 µM | TGI (NCI-H522 lung): 8.98 µM | GI50 (MDA-MB-435): 1.52 µM | TGI (MDA-MB-435): 4 µM | GI50 (MALME-3M melanoma): 10.4 µM | TGI (MALME-3M melanoma): 25.9 µM | GI50 (SN12C renal): 8.28 µM | TGI (SN12C renal): 25.7 µM | GI50 (MDA-MB-231 breast): 11.4 µM | TGI (MDA-MB-231 breast): 29.1 µM | GI50 (PC-3 prostate): 3.78 µM | TGI (PC-3 prostate): 25.2 µM | GI50 (HCC-2998 colon): 12 µM | TGI (HCC-2998 colon): 25.8 µM | GI50 (SNB-19 CNS): 9.93 µM | TGI (SNB-19 CNS): 58.3 µM | GI50 (KM12 colon): 5.62 µM | TGI (KM12 colon): 20.9 µM | GI50 (HOP-62 NSCLC): 5.81 µM | TGI (HOP-62 NSCLC): 19.1 µM | GI50 (T-47D breast): 5.64 µM | TGI (T-47D breast): 48.4 µM | GI50 (SR leukemia): 2.63 µM | TGI (SR leukemia): 11.7 µM | GI50 (SK-OV-3 ovarian): 4.56 µM | TGI (SK-OV-3 ovarian): 17.3 µM | GI50 (HL-60(TB) leukemia): 3.91 µM | TGI (HL-60(TB) leukemia): 19.3 µM | GI50 (SK-MEL-2 melanoma): 11.7 µM | TGI (SK-MEL-2 melanoma): 30 µM | GI50 (MOLT-4 leukemia): 3.98 µM | TGI (MOLT-4 leukemia): 19.3 µM | GI50 (CAKI-1 renal): 3.87 µM | TGI (CAKI-1 renal): 33.8 µM | GI50 (HS 578T breast): 3.24 µM | TGI (HS 578T breast): 28.8 µM | GI50 (TK-10 renal): 13 µM | TGI (TK-10 renal): 56.6 µM | GI50 (SF-539 CNS): 2.75 µM | TGI (SF-539 CNS): 9.84 µM | GI50 (OVCAR-5 ovarian): 11.5 µM | TGI (OVCAR-5 ovarian): 36.4 µM | GI50 (NCI-H226 lung): 11.2 µM | TGI (NCI-H226 lung): 42 µM | GI50 (HT29 colon): 4.04 µM | TGI (HT29 colon): 13.4 µM | GI50 (SNB-75 CNS): 2.05 µM | TGI (SNB-75 CNS): 7.08 µM | GI50 (RPMI-8226 leukemia): 3.29 µM | TGI (RPMI-8226 leukemia): 18.8 µM | GI50 (K-562 leukemia): 3.75 µM | TGI (K-562 leukemia): 27 µM | GI50 (RXF 393 renal): 2.75 µM | TGI (RXF 393 renal): 9.6 µM | GI50 (A498 renal): 2.32 µM | TGI (A498 renal): 9.04 µM | GI50 (U251 CNS): 4.51 µM | TGI (U251 CNS): 20.5 µM | GI50 (IGROV1 ovarian): 12.8 µM | TGI (IGROV1 ovarian): 41 µM | GI50 (SW-620 colon): 4.38 µM | TGI (SW-620 colon): 27.9 µM | GI50 (NCI-H23 lung): 11.1 µM | TGI (NCI-H23 lung): 39.6 µM | GI50 (HCT-116 colon): 5.38 µM | TGI (HCT-116 colon): 17.7 µM | GI50 (A549 NSCLC): 4.69 µM | TGI (A549 NSCLC): 29.5 µM | GI50 (NCI/ADR-RES ovarian): 3.84 µM | TGI (NCI/ADR-RES ovarian): 33 µM | GI50 (UO-31 renal): 8.7 µM | TGI (UO-31 renal): 34.6 µM | GI50 (SF-268 CNS): 10.4 µM | TGI (SF-268 CNS): 43.8 µM | GI50 (BT-549 breast): 10.6 µM | TGI (BT-549 breast): 28.5 µM | GI50 (CCRF-CEM leukemia): 3.46 µM | TGI (CCRF-CEM leukemia): 28.1 µM | GI50 (SK-MEL-28 melanoma): 9.66 µM | TGI (SK-MEL-28 melanoma): 24.5 µM | GI50 (HOP-92 NSCLC): 2.32 µM | TGI (HOP-92 NSCLC): 16.7 µM | GI50 (NCI-H460 lung): 3.53 µM | TGI (NCI-H460 lung): 14.4 µM | GI50 (M14 melanoma): 3.66 µM | TGI (M14 melanoma): 12.6 µM | GI50 (UACC-257 melanoma): 11.6 µM | TGI (UACC-257 melanoma): 36.7 µM | GI50 (LOX IMVI melanoma): 6.48 µM | TGI (LOX IMVI melanoma): 22 µM | GI50 (HCT-15 colon): 3.9 µM | TGI (HCT-15 colon): 20.4 µM | GI50 (COLO 205 colon): 2.49 µM | TGI (COLO 205 colon): 5.03 µM | GI50 (OVCAR-3 ovarian): 3.56 µM | TGI (OVCAR-3 ovarian): 9.88 µM | GI50 (ACHN renal): 6.27 µM | TGI (ACHN renal): 39.1 µM

Reference: PubChem BioAssay (NCI)
